Data: PMC3242417 (Bioorganic & medicinal chemistry letters, 2011)
Read-outs that look alike come from different tables or passages of the source.

Experiments:
in vitro [1] = conditions: human
in vitro [2] = test: in vitro
wild-type HBV = type: cell-based; conditions: in vitro
HIV-1 = test: microbe, parasite or virus in culture; type: cell-based; conditions: for EC50: read-out: Anti-HIV-1 EC50
in vitro [3] = conditions: human; remark: listed apart in the source
HCV replicon = test: microbe, parasite or virus in culture; type: cell-based; conditions: for EC90: read-out: Anti-HCV EC90; for EC50: read-out: Anti-HCV EC50
Huh-7 cells = test: Cellular pharmacology: intracellular metabolites in Huh-7 cells by LC-MS/MS; type: in vitro ADME; conditions: 50 μM, 37°C, 4 h
[4] = system: four different cell lines
HepG2 cells = test: Toxicity to HepG2 cells; type: cell-based; conditions: data not shown
[5] = Human immunodeficiency virus 1, read-out: Anti-HIV-1 EC90

Molecule | IC50 (in vitro [1]) [µM] | IC50 (in vitro [2]) [µM] | CC50 at 96 h (in vitro [3]) [µM] | EC90 (HIV-1; [5]) [µM] | EC90 (HCV replicon; Hepatitis C virus, Huh-7, 96 h) [µM] | other results
C[C@@]1(F)[C@H](O)[C@@H](CO)O[C@H]1n1ccc2c(N)ncnc21 [Compound 5a] | > 100 | > 100 | – | – | – | –
C[C@@]1(F)[C@H](O)[C@@H](CO)O[C@@H]1n1cc(C#Cc2ccccc2)c2c(N)ncnc21 [Compound 16] | – | – | – | – | – | anti-HBV activity (in words) (wild-type HBV): no anti-HBV activity; anti-HIV-1 activity (in words) (HIV-1): anti-HIV-1 activity
C[C@@]1(F)[C@H](O)[C@@H](CO)O[C@@H]1n1ccc2c(N)ncnc21 [Compound 4a] | > 100 | > 100 | > 10 | > 100 | > 10 | –
C[C@@]1(F)[C@H](O)[C@@H](CO)O[C@H]1n1ccc2c(N)nc(N)nc21 [Compound 5f] | > 100 | > 100 | – | > 100 | – | deamination to 7-deazaguanosine nucleoside or nucleoside phosphate (Huh-7 cells): no deamination had occurred; nucleoside triphosphate found intracellularly (Huh-7 cells): only a trace amount of nucleoside triphosphate was found
C=Cc1cn([C@@H]2O[C@H](CO)[C@@H](O)[C@@]2(C)F)c2ncnc(N)c12 [Compound 7] | – | – | – | – | – | toxicity (in words) [4]: exhibited toxicity in the ribosomal RNA assay and in three independent cell lines; anti-HIV-1 activity (in words) (HIV-1): anti-HIV-1 activity
CCOC(=O)[C@H](C)NP(=O)(OC[C@H]1O[C@@H](n2ccc3c(N)nc(N)nc32)[C@](C)(F)[C@@H]1O)Oc1ccccc1 (some centres unmarked) [Compound 20] | – | – | – | – | – | deamination to 7-deazaguanosine nucleoside or nucleoside phosphate (Huh-7 cells): no deamination had occurred; nucleoside triphosphate found intracellularly (Huh-7 cells): only a trace amount of nucleoside triphosphate was found
C[C@@]1(F)[C@H](O)[C@@H](CO)O[C@H]1n1cc(C#Cc2ccccc2)c2c(N)ncnc21 [Compound 17] | – | – | – | – | > 10 | toxicity to HepG2 cells (in words) (HepG2 cells): toxicity to HepG2 cells; anti-HBV activity (in words) (wild-type HBV): weak anti-HBV activity; anti-HIV-1 activity (in words) (HIV-1): anti-HIV-1 activity
C[C@@]1(F)[C@H](O)[C@@H](CO)O[C@H]1n1cc(F)c2c(N)ncnc21 [Compound 5b] | – | > 100 | > 10 | – | – | –
COC(=O)/C=C/c1cn([C@@H]2O[C@H](CO)[C@@H](O)[C@@]2(C)F)c2ncnc(N)c12 [Compound 11] | > 100 | > 100 | > 10 | – | – | –
4-amino-7-iodo-1-(2-deoxy-2-fluoro-2-C-methyl-α-D-ribofuranosyl)-1H-pyrrolo[2,3-d]pyrimidine [Compound 4e] | – | – | – | – | – | toxicity to HepG2 cells (in words) (HepG2 cells): toxicity to HepG2 cells; toxicity (in words) [4]: toxicity; anti-HBV activity (in words) (wild-type HBV): weak anti-HBV activity; EC50 (HIV-1): > 100 µM; EC90 (HIV-1; read-out: Anti-HIV-1 EC90): > 100 µM; anti-HCV activity (in words) (HCV replicon; HCV replicon): modest anti-HCV activity; EC50 (HCV replicon; HCV replicon, 96 h): 7 µM; EC90 (HCV replicon; HCV replicon, 96 h): 24.9 µM; IC50 (CEM cells): 40.9 µM; IC50 (PBM cells): > 100 µM; IC50 (VERO cells): 65.9 µM
CNc1ncnc2c1c(F)cn2[C@H]1O[C@H](CO)[C@@H](O)[C@@]1(C)F [Compound 4h] | > 100 | > 100 | > 10 | > 100 | > 10 | –
C#Cc1cn([C@@H]2O[C@H](CO)[C@@H](O)[C@@]2(C)F)c2nc(N)nc(N)c12 [Compound 15] | – | – | > 10 | – | > 10 | –
C[C@@]1(F)[C@H](O)[C@@H](CO)O[C@@H]1n1cc(Cl)c2c(N)ncnc21 [Compound 4c] | – | – | > 10 | – | > 10 | –
C#Cc1cn([C@H]2O[C@H](CO)[C@@H](O)[C@@]2(C)F)c2nc(N)nc(N)c12 [Compound 14] | – | – | – | – | – | anti-HBV activity (in words) (wild-type HBV): no anti-HBV activity; anti-HIV-1 activity (in words) (HIV-1): anti-HIV-1 activity
CCc1cn([C@@H]2O[C@H](CO)[C@@H](O)[C@@]2(C)F)c2ncnc(N)c12 [Compound 9] | > 100 | – | > 10 | – | > 10 | –
C[C@@]1(F)[C@H](O)[C@@H](CO)O[C@@H]1n1ccc2c(N)nc(N)nc21 [Compound 4f] | > 100 | > 100 | > 10 | – | > 10 | –
C[C@@]1(F)[C@H](O)[C@@H](CO)O[C@H]1n1cc(Cl)c2c(N)ncnc21 [Compound 5c] | – | – | – | > 100 | – | –
COc1ncnc2c1ccn2[C@H]1O[C@H](CO)[C@@H](O)[C@@]1(C)F [Compound 4i] | > 100 | > 100 | – | – | > 10 | –
C#Cc1cn([C@H]2O[C@H](CO)[C@@H](O)[C@@]2(C)F)c2ncnc(N)c12 [Compound 12] | > 100 | – | – | > 100 | – | –
COC(=O)/C=C/c1cn([C@H]2O[C@H](CO)[C@@H](O)[C@@]2(C)F)c2ncnc(N)c12 [Compound 10] | > 100 | > 100 | – | – | > 10 | concentration up to which no cytotoxicity was observed ([4]; four different cell lines): > 100 µM; anti-HBV activity (in words) (wild-type HBV): no anti-HBV activity; anti-HIV-1 activity (in words) (HIV-1): strong anti-HIV-1 activity
CCc1cn([C@H]2O[C@H](CO)[C@@H](O)[C@@]2(C)F)c2ncnc(N)c12 [Compound 8] | > 100 | – | – | > 100 | – | –
COc1ncnc2c1ccn2[C@@H]1O[C@H](CO)[C@@H](O)[C@@]1(C)F [Compound 5i] | > 100 | > 100 | > 10 | – | – | –
C[C@@]1(F)[C@H](O)[C@@H](CO)O[C@H]1n1cc(I)c2c(N)nc(N)nc21 [Compound 5g] | – | – | – | > 100 | – | –
CNc1ncnc2c1c(F)cn2[C@@H]1O[C@H](CO)[C@@H](O)[C@@]1(C)F [Compound 5h] | > 100 | > 100 | – | – | – | –
C#Cc1cn([C@@H]2O[C@H](CO)[C@@H](O)[C@@]2(C)F)c2ncnc(N)c12 [Compound 13] | > 100 | – | > 10 | – | > 10 | –
C[C@@]1(F)[C@H](O)[C@@H](CO)O[C@@H]1n1cc(I)c2c(N)nc(N)nc21 [Compound 4g] | – | – | > 10 | – | > 10 | –
C[C@@]1(F)[C@H](O)[C@@H](CO)O[C@@H]1n1cc(Br)c2c(N)ncnc21 [Compound 4d] | – | – | – | > 100 | > 10 | –
4-amino-7-iodo-1-(2-deoxy-2-fluoro-2-C-methyl-β-D-ribofuranosyl)-1H-pyrrolo[2,3-d]pyrimidine [Compound 5e] | – | – | – | – | – | toxicity (in words) [4]: toxicity; EC50 (HIV-1): 94 µM; EC90 (HIV-1; read-out: Anti-HIV-1 EC90): > 100 µM; anti-HCV activity (in words) (HCV replicon; HCV replicon): modest anti-HCV activity; EC50 (HCV replicon; HCV replicon, 96 h): 1.1 µM; EC90 (HCV replicon; HCV replicon, 96 h): > 33 µM; IC50 (CEM cells): 24 µM; IC50 (PBM cells): 53.2 µM; IC50 (VERO cells): 21.4 µM
C=Cc1cn([C@H]2O[C@H](CO)[C@@H](O)[C@@]2(C)F)c2ncnc(N)c12 [Compound 6] | – | – | – | – | – | toxicity (in words) [4]: strong toxicity across all cell lines; anti-HIV-1 activity (in words) (HIV-1): anti-HIV-1 activity; anti-HCV activity (in words) (HCV replicon; HCV replicon): moderate anti-HCV activity
C[C@@]1(F)[C@H](O)[C@@H](CO)O[C@@H]1n1cc(F)c2c(N)ncnc21 [Compound 4b] | – | > 100 | – | > 100 | > 10 | –
